The source of these data is patent publication US20250161307A1, “PYRAZOLOPYRIMIDINES AS MODULATORS OF SPERMINE OXIDASE” (Janssen Pharmaceutica NV, priority 2022, published 2025).

Counter-ions that a name gives are not always drawn.

Experiment [1] concerns the target T1, SMOX (Homo sapiens (Human), UniProt Q9NWM0). Kind of experiment: Human SMOX assay (HyPerBlu chemiluminescent detection of hydrogen peroxide). Format: biochemical. The settings on record: 2.5 nM full length hSMOX, spermine substrate, 1 h at room temperature, luminescence read; read-out: SMOx_IC50. The gist of the method: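 Full-length N-His human SMOX (2.5 nM, E. coli-expressed) was incubated 1 h at room temperature with 30 µM spermine, 11-point compound dilutions and 1.25% DMSO in pH 7.4 HEPES/NaCl/EGTA buffer. H2O2 was detected by HyPerBlu chemiluminescence after 30 min, and IC50 came from dose–response fits.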

Experiment [2] has as its target T1, SMOX. The experiment in a line: Cellular Thermal Shift Assay (CETSA) with alphaLISA detection of intact SMOX in A549 cells. The settings on record: 1 hour compound incubation at 37° C., heated to 55° C. for 5 minutes. In kind it is cell-based. An excerpt:
The Cellular Thermal Shift Assay (CETSA) is a biophysical assay based on the principle of ligand-induced thermal stabilization of target proteins, meaning that a protein denaturing temperature will change upon ligand interaction. Thus, by heating samples (i.e. cells, ex vivo samples) to different temperatures, and quantifying conformationally intact proteins we can detect compound-protein interactions after compound treatment. CETSA allows direct monitoring of ligand binding to a specific target (target engagement). In our study, we have developed a suitable detection system that will detect intact SMOX using the alphaLISA. […] The detection of compound -SMOX ligand binding is performed using A549 cells. This adenocarcinoma human alveolar basal epithelial cell line expresses high levels of SMOX. Their use has been widely reported in the literature with respect to the investigation of the SMOX pathway. Using SMOX high-expressing cells with CETSA and alphaLISA systems provides the optimal platform for screening small molecules for SMOX inhibition.
A549 cells were seeded at a density of 0.05-0.1×10^6 cells/mL in T175 flasks and cultured in 25 mL of culture medium consisting in RPMI 1640 medium (Gibco) supplemented with 10% fetal bovine serum (Gibco). Cells were passaged twice per week and used for CETSA assays before reaching confluency. One day prior to the CETSA cells were seeded in 384-well white assay plates (Corning) at 15000 cells per well. Briefly, cells were washed with PBS (Life Technologies Europe BV) and dissociated by adding 2 mL TrypLE™ Select (Life Technologies Europe BV). After 5 min at 37° C., cells were resuspended in culture medium, counted using a ViCell XR cell counter (ViCell) and seeded in the 384-well plates.
Compounds were pre-diluted in PBS to a final concentration of […] and 1% DMSO and serially diluted in PBS 1% DMSO. For compound-cell incubation, medium in the 384 well plates was replaced with 30 μL of serially diluted compounds. After incubation at 37° C. for 1 hour the liquid was removed and plates were heated to 55° C. for 5 minutes and then transferred to ice for 5 minutes. After the cooling step, cells were lysed by adding 15 μL 1× alphaLISA-buffer (Perkin Elmer) containing anti-SMOX monoclonal antibody #2 and anti-SMOX Fab-fragment #33 mixture at a concentration of 5 and 0.5 nM respectively. After one hour at RT, 5 μL anti-6×His alphaLISA acceptor beads (50 mg/L, AL128C, Perkin Elmer) were added to the wells followed by an additional incubation of one hour at RT. Then 5 μL anti-rabbit IgG alpha donor beads (200 mg/L was added to the wells. After one hour incubation at RT the alpha signal was read using an alpha compatible reader. MDL75257 (M2949, Sigma) was used as positive control for compound-SMOX interaction. Compound-SMOX interaction is detected through the comparison of the high alpha signal of the negative control with the much lower signal of the wells that contain SMOX binding compounds.
Background: Bead proximity is the source of the signal in Alpha formats.

The next experiment deals with hPAOX (Homo sapiens (Human), UniProt Q6QHF9). Kind of experiment: Human PAOX assay (HyPerBlu chemiluminescent detection of hydrogen peroxide). In kind it is biochemical. The settings on record: 60 pM recombinant PAOX, 20 μM N-acetylspermine substrate. In short, it runs like this:
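His-tagged recombinant PAOX expressed in sf9 insect cells was used at 60 pM, with 20 μM N-acetylspermine as substrate. Hydrogen peroxide formed by the reaction was detected by chemiluminescence from a boronate probe (HyPerBlu). Inhibition appears as lower luminescence.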

T1 sequence (Q9NWM0 whole entry): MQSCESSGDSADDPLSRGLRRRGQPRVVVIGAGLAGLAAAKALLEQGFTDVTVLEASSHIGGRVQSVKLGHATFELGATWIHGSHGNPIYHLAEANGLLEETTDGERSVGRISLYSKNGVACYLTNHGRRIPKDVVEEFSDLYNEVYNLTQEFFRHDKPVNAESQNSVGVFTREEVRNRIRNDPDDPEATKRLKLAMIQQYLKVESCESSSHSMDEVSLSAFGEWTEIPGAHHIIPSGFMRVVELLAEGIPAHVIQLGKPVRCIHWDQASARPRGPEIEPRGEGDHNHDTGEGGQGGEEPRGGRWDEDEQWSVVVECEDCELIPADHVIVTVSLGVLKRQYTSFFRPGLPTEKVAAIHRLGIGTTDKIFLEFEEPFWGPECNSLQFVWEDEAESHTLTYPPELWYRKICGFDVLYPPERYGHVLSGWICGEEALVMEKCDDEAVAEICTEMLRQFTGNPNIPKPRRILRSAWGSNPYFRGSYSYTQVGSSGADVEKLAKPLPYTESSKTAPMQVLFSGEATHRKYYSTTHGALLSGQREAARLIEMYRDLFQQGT
Chain of hPAOX (Q6QHF9 whole entry): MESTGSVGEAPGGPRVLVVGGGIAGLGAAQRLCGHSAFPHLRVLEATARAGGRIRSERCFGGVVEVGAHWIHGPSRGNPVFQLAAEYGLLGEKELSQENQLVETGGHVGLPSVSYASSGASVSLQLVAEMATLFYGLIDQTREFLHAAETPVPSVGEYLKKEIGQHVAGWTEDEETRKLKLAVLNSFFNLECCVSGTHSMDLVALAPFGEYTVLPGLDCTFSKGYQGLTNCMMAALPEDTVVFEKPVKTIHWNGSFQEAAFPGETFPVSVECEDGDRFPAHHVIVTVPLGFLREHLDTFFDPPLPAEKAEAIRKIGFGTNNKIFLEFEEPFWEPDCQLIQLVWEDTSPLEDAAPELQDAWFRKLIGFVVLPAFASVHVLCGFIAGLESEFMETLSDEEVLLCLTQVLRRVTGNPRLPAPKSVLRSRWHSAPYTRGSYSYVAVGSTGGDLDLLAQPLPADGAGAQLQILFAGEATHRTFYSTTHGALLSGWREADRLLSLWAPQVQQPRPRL

Take `CN1CC(NC(=O)c2cc3nc(-c4ccccc4)cc(-c4ccccc4)n3n2)C1` [Example 23, N-(1-Methylazetidin-3-yl)-5,7-diphenylpyrazolo[1,5-a]pyrimidine-2-carboxamide]: the values for the IC50 at SMOX [1] and at hPAOX were 49 nM and 960 nM, respectively. The “SMOx % recovery CETSA” value at SMOX [2] stood at 52%.

Take `O=C(NCCCc1c[nH]cn1)c1cc2nc(-c3ccccc3)cc(-c3ccccc3)n2n1` [Example 27, N-(3-(1H-Imidazol-4-yl)propyl)-5,7-diphenylpyrazolo[1,5-a]pyrimidine-2-carboxamide]: the figures for the IC50 on SMOX [1] and on hPAOX were 15 nM and 49 nM, respectively. Besides, the “SMOx % recovery CETSA” value on SMOX [2] was determined as 43%.

For `O=C(NCCCn1ccnc1)c1cc2nc(-c3ccccc3)cc(-c3ccccc3)n2n1` [Example 43, N-(3-(1H-Imidazol-1-yl)propyl)-5,7-diphenylpyrazolo[1,5-a]pyrimidine-2-carboxamide], the IC50 at SMOX [1] stood at 10 nM; at hPAOX, 739 nM. The “SMOx % recovery CETSA” value on SMOX [2] turned out to be 74%.

Consider `CC(C)Nc1cc(-c2ccccc2)nc2cc(C(=O)NCCCn3ccnc3)nn12` [Example 57, N-(3-(1H-Imidazol-1-yl)propyl)-7-(isopropylamino)-5-phenylpyrazolo[1,5-a]pyrimidine-2-carboxamide], for which the IC50 at SMOX [1] is 176 nM; on hPAOX it was 4440 nM. For the same molecule, the “SMOx % recovery CETSA” value at SMOX [2] is 1%.

Turning to `O=C(NCCCn1ccnc1)c1cc2nc(-c3ccccc3)cc(N3CCCCC3)n2n1` [Example 58, N-(3-(1H-Imidazol-1-yl)propyl)-5-phenyl-7-(piperidin-1-yl)pyrazolo[1,5-a]pyrimidine-2-carboxamide], the IC50 at SMOX [1] was 24 nM; on hPAOX, 6850 nM. Besides, the “SMOx % recovery CETSA” value on SMOX [2] is reported as 29%.

Turning to `O=C(NCCCn1ccnc1)c1cc2nc(-c3ccccc3)cc(N3CCCC(F)C3)n2n1` (stereo not drawn) [Example 62, N-(3-(1H-Imidazol-1-yl)propyl)-7-(3-fluoropiperidin-1-yl)-5-phenylpyrazolo[1,5-a]pyrimidine-2-carboxamide], the IC50 stood at 49 nM at SMOX [1] and 6040 nM at hPAOX. Besides, the “SMOx % recovery CETSA” value at SMOX [2] is recorded as 87%.

For `O=C(NCCCn1ccnc1)c1cc2nc(-c3ccccc3)cc(N3CCC(F)CC3)n2n1` [Example 63, N-(3-(1H-Imidazol-1-yl)propyl)-7-(4-fluoropiperidin-1-yl)-5-phenylpyrazolo[1,5-a]pyrimidine-2-carboxamide], the IC50 came out at 241 nM at SMOX [1] and 2330 nM on hPAOX. For the same molecule, the “SMOx % recovery CETSA” value at SMOX [2] came to 6%.

Consider `CN1CC(NC(=O)c2cc3nc(-c4ccccc4)cc(N4CCCCC4)n3n2)C1` [Example 68, N-(1-methylazetidin-3-yl)-5-phenyl-7-(piperidin-1-yl)pyrazolo[1,5-a]pyrimidine-2-carboxamide trifluoroacetate], for which the IC50 amounted to 147 nM at SMOX [1] and 5880 nM at hPAOX. Also, the “SMOx % recovery CETSA” value at SMOX [2] is reported as 39%.

As for `O=C(NCCCn1ccnc1)c1cc2nc(-c3ccccc3)cc(-c3cccc(F)c3)n2n1` [Example 78, N-(3-(1H-imidazol-1-yl)propyl)-7-(3-fluorophenyl)-5-phenylpyrazolo[1,5-a]pyrimidine-2-carboxamide], the IC50 on SMOX [1] was determined as 36 nM; on hPAOX, 1410 nM. Moreover, the “SMOx % recovery CETSA” value at SMOX [2] came out at 0%.

Turning to `Cc1cccc(-c2cc(-c3ccccc3)nc3cc(C(=O)NCCCn4ccnc4)nn23)c1` [Example 81, N-(3-(1H-imidazol-1-yl)propyl)-5-phenyl-7-(m-tolyl)pyrazolo[1,5-a]pyrimidine-2-carboxamide], the IC50 at SMOX [1] turned out to be 122 nM; on hPAOX, 123 nM. Also, the “SMOx % recovery CETSA” value on SMOX [2] stood at 0%.

For the molecule `O=C(NCCCn1ccnc1)c1cc2nc(-c3ccccc3)cc(-c3ccc(F)cc3)n2n1` [Example 86, N-(3-(1H-imidazol-1-yl)propyl)-7-(4-fluorophenyl)-5-phenylpyrazolo[1,5-a]pyrimidine-2-carboxamide], the IC50 on SMOX [1] was determined as 24 nM; on hPAOX, 2190 nM. Also, the “SMOx % recovery CETSA” value at SMOX [2] amounted to 40%.
